Measured values reported in US20260027073A1, “USE OF SMALL-MOLECULE COMPOUND HAVING NAPHTHYLAMINE STRUCTURE” (HANGZHOU PHECDAMED CO., LTD., priority 2023, published 2026).

Columns and labels:
[1] = system: LPS-induced acute lung injury mice; test: Survival in LPS-induced acute lung injury; format: in vivo, C57 mice; settings: 20 mg/kg intraperitoneal once a day; up to 9 days; FIG. 28
Procedure: The model was constructed as follows, male mice C57 aged 6-8 weeks and weighing 18-22 g were anesthetized and fixed, and then 20 mg/kg LPS (E.coil) was dissolved in 50 μl of PBS and dripped under direct laryngoscopic vision to form a model group. The experiment was divided into three groups, each having six mice, LPS group (model control group, airway drip of 50 μl LPS), LPS+20 mg/kg group (airway drip of 50 μl LPS, and given 20 mg/kg of TJ01-013 treatment), LPS+Sivelestat group (positive control group, airway drip of 50 μl LPS and given 5 mg/kg of Sivelestat treatment). The mode of administration was intraperitoneal injection, the volume of administration was 5 ml/kg, the frequency of administration was once a day, and the biological deaths and changes in body weights of the mice were observed and recorded every day, and the mice were regarded as physiologically dead if their body weights decreased by 20% or more compared with that before the administration of LPS. Survival curves were plotted based on deaths observed up to 9 days after administration.

UUO model mice = test: UUO-induced renal fibrosis; format: in vivo
Procedure: The UUO model is currently the most widely used experimental animal model for studying renal tubulointerstitial fibrosis. By ligating a unilateral ureter to cause obstruction of the renal drainage system, leading to acute alterations in renal function and chronic damage to renal structure, it simulates renal interstitial injury caused by ureteral obstruction, which is common in clinical practice. The modeling was performed as follows: • (1) On the first day of the test, mice were given 50 mg/kg sodium pentobarbital anesthesia, after confirming that the mice were under anesthesia and preparing and disinfecting the skin, an incision of about 1 cm at 1 cm left and below of the costovertebral angle was made, the left side of the kidney was fully exposed and the ureter was sought downward along the renal hilum, and the ureter was ligated with a 6-0 nylon thread, and after ligation, the muscle and the skin layers were sutured layer by layer. In the sham group, only the kidney was exposed, but it was not ligated, and sutured directly. The experiments were divided into a sham group (Sham, oral gavage of vehicle), a model control group (vehicle, oral gavage of vehicle), a TJ01-013 10 mg/kg treatment group ([…]), and the vehicle used is 0.5% CMC-Na, administered at a dose of 10 ml/kg, and the frequency of administration was once a day. The drug was administered continuously for 7 days after UUO surgery, at the endpoint of the test, immediately after the mice were put to death, saline was perfused through the heart until the blood in the kidneys was completely drained and the kidneys were transformed from a dark red color to khaki. The operated kidney on the side was collected, the kidney was cut through the short axis of the kidney, and the kidney tissue samples were stored separately according to the requirements of the test. • (2) Renal histopathology
Kidney tissues were fixed with 4% paraformaldehyde for 48 hours, paraffin-embedded, sectioned at a thickness of 4 μm, and Masson stained. Specific experimental procedures were performed as described previously, and after sectioning and scanning the images, the results were analyzed semi-quantitatively using Image J software.
Total RNA was extracted from kidney tissue samples by Tissue RNA Rapid Extraction Kit, and the concentration and purity of RNA were determined by micro-ultraviolet spectrophotometer, and then operated according to the instruction steps of HiScript® II 1st Strand cDNA Synthesis Kit, the cDNA was reversely transcribed with 1 μg of total amount of […], followed by a 15 ul amplification system, with 5 μL of cDNA, 7.5 μL of 2×SYBR Premix Ex Taq™, 0.3 μL of each of forward and reverse primers, and the rest was supplemented with double-distilled water. The conditions of the Bio-Rad reaction were 95° C. for 5 min, denaturation at 95° C. for 10 seconds, annealing/extension at 60° C. for 30 seconds for 40 cycles, and 65° C. for 15 min. The expression of the target gene was calculated by 2-ΔΔCt relative quantification. The Ct value of the target gene was first corrected by the internal reference gene (β-actin), and then compared with the control group to derive the relative expression level. […]

tinnitus model mice = test: Sodium salicylate-induced tinnitus; format: in vivo, C57BL/6 mice; settings: 8 kHz and 16 kHz noise; 7.5, 15, 30 mg/kg, dose-dependence; vs model group; FIG. 85
Procedure: 7-week-old C57BL/6 male mice without tinnitus were screened for tinnitus-free mice using the acoustic startle (AS) response and gap pre-pulse inhibition of the acoustic startle (GPIAS). The mice were randomly divided into five groups, normal control group (normal, n=10), model control group (Control, n=10), TJ01-013 7.5 mg/kg treatment group (7.5 mg/kg, n=10), TJ01-013 15 mg/kg treatment group (15 mg/kg, n=10), and TJ01-013 30 mg/kg treatment group (30 mg/kg, n=10). Except for the normal control group, all the other groups were injected intraperitoneally with 450 mg/kg sodium salicylate to construct the model, in which the normal control group was injected intraperitoneally with the corresponding volume of saline, and the administration treatment was started on the day of modeling, in which the normal control group and the model control group were administrated vehicle (0.5% CMC-Na) by gavage, and the TJ01-013 treatment group was given the treatment of TJ01-013 with the corresponding concentration of TJ01-013 in a volume of 10 ml/kg, and the acoustic startle was measured again 3 hours after the last dose after 4 consecutive days of administration. Behavioral test, AS response paired with GPLAS response was the behavioral experiment to detect the presence of tinnitus. […] The output of the platform is amplified, sampled, stored in a computer, and analyzed offline. […]

[2] = vs UUO+Vehicle, western blot, FIG. 31

O=C(O)C[S+]([O-])c1cc(NS(=O)(=O)c2ccc(Br)cc2)c2ccccc2c1O (centres unmarked) [I-1]
survival rate [1]: significantly elevated
Collagen volume fraction %, renal cortex (Masson) (UUO model mice; 10 mg/kg TJ01-013, no significant effect vs model control 4.67%, FIG. 29): 5.58%
Collagen volume fraction %, renal cortex (Masson) (UUO model mice; 30 mg/kg TJ01-013, vs model control 4.67%, p<0.05, FIG. 29): 0.61%
fibrosis in the renal medulla (UUO model mice; FIG. 29): reducing effect on fibrosis
autophagic vesicles with double-layer or multi-layer membrane structure in the cell (TEM) (UUO model mice; FIG. 32): more autophagic vesicles
morphology of renal tubular epithelial cells and mitochondria (TEM) (UUO model mice; relative to normal and UUO, FIG. 32): in between the former two
Col1a1 gene mRNA expression in renal tissue (UUO model mice; vs UUO+Vehicle, FIG. 30): certain tendency to inhibit
Fn1 gene mRNA expression in renal tissue (UUO model mice; vs UUO+Vehicle, FIG. 30): significantly reduced
collagen type I (collagen I) protein level in kidney (UUO model mice; [2]): significantly reduced
fibronectin FN protein level in kidney (UUO model mice; [2]): significantly reduced
AS response amplitude ratios (GPIAS) (tinnitus model mice): decreased significantly
